The conditions of data set [1]: background statement; cited from earlier work.
Another data set addresses T1, human amylin receptors (Homo sapiens, UniProt O60896+P30988).
T1 sequence (P30988 25-474): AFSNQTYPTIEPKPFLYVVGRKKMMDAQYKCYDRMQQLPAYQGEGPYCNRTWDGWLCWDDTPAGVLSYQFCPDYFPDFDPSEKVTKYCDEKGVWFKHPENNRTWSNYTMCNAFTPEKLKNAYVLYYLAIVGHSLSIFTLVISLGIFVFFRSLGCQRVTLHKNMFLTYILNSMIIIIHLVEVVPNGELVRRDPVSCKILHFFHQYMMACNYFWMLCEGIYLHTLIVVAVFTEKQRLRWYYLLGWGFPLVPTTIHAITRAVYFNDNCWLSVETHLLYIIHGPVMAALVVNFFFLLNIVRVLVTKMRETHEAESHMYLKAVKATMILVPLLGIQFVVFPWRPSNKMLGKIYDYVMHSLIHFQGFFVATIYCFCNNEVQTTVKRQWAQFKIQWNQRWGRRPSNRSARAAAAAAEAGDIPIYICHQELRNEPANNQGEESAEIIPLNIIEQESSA
T1 sequence (O60896 24-148 partner): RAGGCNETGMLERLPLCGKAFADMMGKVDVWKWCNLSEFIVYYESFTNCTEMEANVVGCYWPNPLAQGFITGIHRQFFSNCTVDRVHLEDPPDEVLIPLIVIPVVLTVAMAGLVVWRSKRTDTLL
The data set is described as follows: Luciferase assay of amylin (amylin receptor/CRE-luc cell line).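 Also: agonist potency from luminescence of cAMP response element-driven luciferase, EC50 derived from a standard curve of signal versus compound concentration.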 It counts as cell-based. Particulars: stably transfected amylin receptor/CRE-luc CHO cells (CHO-K1/Gal5/AMY3), 24 hours incubation, luciferase readout.

Data set [2] in a line: Study of weight change and food consumption in rats. Particulars: SD rats, subcutaneous, 10 nmol/kg; for Effect on reducing food intake: accumulated food intake recorded every 24 hours (FIGs. 7 and 9); for Effect on reducing body weight: recorded every 24 hours (FIGs. 6 and 8). Type of data set: in vivo, SD (Sprague Dawley) rats. From the text: SD (Sprague Dawley) rats weighing 200-250 g were used for this study. The rats were received at least 10-14 days before the study began such that they could accommodate to the experimental environment. After arrival, they were exposed to a reversed light/dark cycle (i.e., lights switched off in daytime and on in nighttime) for two weeks and were individually housed for the first week so as to ensure high data accuracy and test sensitivity. Throughout the acclimation and experiment period, the rats had free access to food and water. 5-8 rats were assigned to each testing group for the derivatives and were subcutaneously administered the derivatives at a dose of 10 nmol/kg or a vehicle, and the dosing timepoint was recorded for each group. After dosing, the rats were put back into cages where they were housed and could have access to food and water. Food consumption and weight change of the rats were recorded online or manually every 24 hours.

Data set [3] can be described thus: Heat accelerated stability assay for compatibility testing (M8 with M51). Type of data set: physicochemical. Conditions: M8 1 mg/ml with M51 1 mg/ml, pH about 7.4, one-month heat accelerated assay, without and with excipients (phenol, 1,2-dihydroxypropane). Here is the method:
The calcitonin analogue M8 (1 mg/ml), the GLP-1 receptor agonist M51 (1 mg/ml), and sodium dihydrogen phosphate (1.42 mg/ml) were mixed and dissolved in ultrapure water, and 5.5 mg/ml phenol and 14 mg/ml 1,2-dihydroxypropane were further added for the testing group with excipients. After pH was adjusted to about 7.4 with hydrochloric acid/sodium hydroxide, accelerated stability assays were performed according to the method of Example 3. […] Thus, they had the potential to be developed as a co-formulation.

A short description of data set [4]: Heat accelerated stability assay under a neutral condition. It counts as physicochemical. Particulars: pH about 7.4, 40°C; for Changes in characteristics or properties, 0d / Changes in characteristics or properties, 7d / Characteristics or properties on Day 26: 1 mg/mL, phosphate; for Concentration change on Day 26 as compared to Day 0: Day 26 vs Day 0; for Purity Change% (7d-0d): purity from reversed phase chromatography-214 nm, Day 7 vs Day 0. Summed up: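 Peptide (1 mg/mL) with sodium dihydrogen phosphate (1.42 mg/mL) in water, pH ~7.4, was sterile-filtered and stored at 40 °C, sampled on days 7 and 26. After centrifugation, concentration and purity (target/total peak area) were measured by reversed-phase HPLC at 214 and 280 nm, water/0.05% TFA to acetonitrile gradient, 25 °C column.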

Molecules are shown by their SMILES. *1 amine or outer side, *2 acyl side, *3 side chain or, on linkers, in order; H or OH if unused. Where a SMILES comes first, the peptide text is derived from it. The star is where a group is joined. C20 diacid = O=C(O)CCCCCCCCCCCCCCCCCCC(=O)*; γGlu = O=C(O)[C@H](CCC(=O)[*:2])N[*:1]

These results are taken from patent EP4692114A1, “CALCITONIN ANALOGUE, AND DERIVATIVE THEREOF AND USE THEREOF” (Hangzhou Sciwind Biosciences Co., Ltd., priority 2023, dated 2024).

As for `CC(C)C[C@H](NC(=O)[C@H](CCCCN)NC(=O)CNC(=O)[C@H](CC(C)C)NC(=O)[C@@H](NC(=O)[C@@H]1CSSC[C@H](N)C(=O)N[C@@H](CO)C(=O)N[C@@H](CC(N)=O)C(=O)N[C@@H](CC(C)C)C(=O)N[C@@H](CO)C(=O)N[C@@H]([C@@H](C)O)C(=O)N1)C(C)C)C(=O)N[C@@H](CO)C(=O)N[C@@H](CCC(N)=O)C(=O)N[C@@H](CCC(=O)O)C(=O)N[C@@H](CC(C)C)C(=O)N[C@@H](Cc1c[nH]cn1)C(=O)N[C@@H](CCCCN)C(=O)N[C@@H](CC(C)C)C(=O)N[C@@H](CCC(N)=O)C(=O)N[C@H](C(=O)N[C@@H](Cc1ccc(O)cc1)C(=O)N1CCC[C@H]1C(=O)N[C@@H](CCCNC(=N)N)C(=O)N[C@H](C(=O)N[C@@H](CC(N)=O)C(=O)N[C@H](C(=O)NCC(=O)N[C@@H](CO)C(=O)NCC(=O)N[C@H](C(=O)N1CCC[C@H]1C(N)=O)[C@@H](C)O)[C@@H](C)O)[C@@H](C)O)[C@@H](C)O` [D2, salmon calcitonin], in data set [1], the half-life entry is “less than two hours”.
As usually defined, the EC50 is the concentration at which the effect is half-maximal. `CC(C)C[C@H](NC(=O)[C@H](CCCNC(=N)N)NC(=O)CNC(=O)[C@H](CC(C)C)NC(=O)[C@@H](NC(=O)[C@H](C)NC(=O)[C@@H](NC(=O)[C@H](CO)NC(=O)[C@H](CC(C)C)NC(=O)[C@H](CCC(N)=O)NC(=O)[C@H](CO)NC(=O)[C@H](C)NC(=O)CC[C@H](NC(=O)CCCCCCCCCCCCCCCCCCC(=O)O)C(=O)O)[C@@H](C)O)C(C)C)C(=O)N[C@@H](CO)C(=O)N[C@@H](CC(=O)O)C(=O)N[C@@H](CCC(=O)O)C(=O)N[C@@H](CC(C)C)C(=O)N[C@@H](Cc1c[nH]cn1)C(=O)N[C@@H](CCCNC(=N)N)C(=O)N[C@@H](CC(C)C)C(=O)N[C@@H](CCC(N)=O)C(=O)N[C@@H](CC(=O)O)C(=O)N[C@@H](Cc1ccc(O)cc1)C(=O)N1CCC[C@H]1C(=O)N[C@@H](CCCNC(=N)N)C(=O)N[C@H](C(=O)N[C@@H](CC(=O)O)C(=O)N[C@H](C(=O)NCC(=O)N[C@@H](CO)C(=O)NCC(=O)N[C@@H](CO)C(=O)N1CCC[C@H]1C(N)=O)C(C)C)[C@@H](C)O` [M8] ({C20 diacid-γGlu}-ASQLSTAVLGRLSDELHRLQDYPRTDVGSGSP-NH2) displayed a half-maximal effective concentration (EC50) at human amylin receptors of 0.017 nM. Further, in data set [2], the “Effect on reducing food intake” value was “prominent effect” and the “Effect on reducing body weight” value is “prominent effect”. For the same compound, the “Change in the spectra of reversed phase chromatography (compatibility)” value in data set [3] is on record as “only a little change”. Moreover, in data set [4], the “Changes in characteristics or properties, 0d” value (from here on “Changes … 0d”) is recorded as “Clear”; the “Characteristics or properties on Day 26” value is reported as “clear solution”; the “Concentration change on Day 26 as compared to Day 0” value was “less than 2%”; the “Purity Change% (7d-0d)” value was “No change (a decrease of less than 1% from the initial value to the detected content is denoted as "no change")”. Also, in data set [4] (7d), the “Changes in characteristics or properties, 7d” value (“Changes … 7d” for short) is listed as “Clear”. In addition, the “Reversed phase chromatography 7d change” value in data set [4] (Table 8, purity change, 7d) is on record as “No change (a decrease of less than 1% from the initial value to the detected content is denoted as "no change")”. Besides, the “Reversed phase chromatography 26d change” value in data set [4] (Table 8, purity change, 26d) is -0.12%.
With `CC(C)C[C@H](NC(=O)[C@H](CCCNC(=N)N)NC(=O)CNC(=O)[C@H](CC(C)C)NC(=O)[C@@H](NC(=O)[C@H](C)NC(=O)[C@@H](NC(=O)[C@H](CO)NC(=O)[C@H](CC(C)C)NC(=O)[C@H](CCC(N)=O)NC(=O)[C@H](CO)NC(=O)[C@H](C)NC(=O)CC[C@H](NC(=O)CCCCCCCCCCCCCCCCCCC(=O)O)C(=O)O)[C@@H](C)O)C(C)C)C(=O)N[C@@H](CO)C(=O)N[C@@H](CCC(N)=O)C(=O)N[C@@H](CCC(=O)O)C(=O)N[C@@H](CC(C)C)C(=O)N[C@@H](Cc1c[nH]cn1)C(=O)N[C@@H](CCCNC(=N)N)C(=O)N[C@@H](CC(C)C)C(=O)N[C@@H](CCC(=O)O)C(=O)N[C@@H](CC(=O)O)C(=O)N[C@@H](Cc1ccc(O)cc1)C(=O)N1CCC[C@H]1C(=O)N[C@@H](CCCNC(=N)N)C(=O)N[C@H](C(=O)N[C@@H](CC(=O)O)C(=O)N[C@H](C(=O)NCC(=O)N[C@@H](CO)C(=O)NCC(=O)N[C@@H](CO)C(=O)N1CCC[C@H]1C(N)=O)C(C)C)[C@@H](C)O` [M13] ({C20 diacid-γGlu}-ASQLSTAVLGRLSQELHRLEDYPRTDVGSGSP-NH2), at human amylin receptors, it took 0.017 nM to reach a half-maximal effect (EC50). Moreover, in data set [2], the “Effect on reducing food intake” value is “particularly effective” and the “Effect on reducing body weight” value was “particularly effective”. Moreover, in data set [4], the “Changes … 0d” value is listed as “Clear”; the “Characteristics or properties on Day 26” value is on record as “clear solution”; the “Concentration change on Day 26 as compared to Day 0” value is “less than 2%”; the “Purity Change% (7d-0d)” value was “No change (a decrease of less than 1% from the initial value to the detected content is denoted as "no change")”. In data set [4] (7d), the “Changes … 7d” value is on record as “Clear”.
Turning to `CC(C)C[C@H](NC(=O)[C@H](CCCNC(=N)N)NC(=O)CNC(=O)[C@H](CC(C)C)NC(=O)[C@@H](NC(=O)[C@H](C)NC(=O)[C@@H](NC(=O)[C@H](CO)NC(=O)[C@H](CC(C)C)NC(=O)[C@H](CCC(N)=O)NC(=O)[C@H](CO)NC(=O)[C@H](C)NC(=O)CC[C@H](NC(=O)CCCCCCCCCCCCCCCCCCC(=O)O)C(=O)O)[C@@H](C)O)C(C)C)C(=O)N[C@@H](CO)C(=O)N[C@@H](CCC(N)=O)C(=O)N[C@@H](CCC(=O)O)C(=O)N[C@@H](CC(C)C)C(=O)N[C@@H](Cc1c[nH]cn1)C(=O)N[C@@H](CCCNC(=N)N)C(=O)N[C@@H](CC(C)C)C(=O)N[C@@H](CCC(N)=O)C(=O)N[C@@H](CC(=O)O)C(=O)N[C@@H](Cc1ccc(O)cc1)C(=O)N1CCC[C@H]1C(=O)N[C@@H](CCCNC(=N)N)C(=O)N[C@H](C(=O)N[C@@H](CC(=O)O)C(=O)N[C@H](C(=O)NCC(=O)N[C@@H](C)C(=O)NCC(=O)N[C@@H](CO)C(=O)N1CCC[C@H]1C(N)=O)C(C)C)[C@@H](C)O` [M19] ({C20 diacid-γGlu}-ASQLSTAVLGRLSQELHRLQDYPRTDVGAGSP-NH2), the 50% effective concentration (EC50) at human amylin receptors came to 0.016 nM. In addition, in data set [2], the “Effect on reducing food intake” value is reported as “prominent effect” and the “Effect on reducing body weight” value was “prominent effect”. In data set [4], the “Changes … 0d” value is “Clear” and the “Purity Change% (7d-0d)” value is on record as “No change (a decrease of less than 1% from the initial value to the detected content is denoted as "no change")”. In addition, the “Changes … 7d” value in data set [4] (7d) is listed as “Clear”. The “Concentration change (7d-0d)/%” value in data set [4] (Day 7 vs Day 0, reversed phase chromatography) is listed as “No change (a decrease of less than 1% from the initial value to the detected content is denoted as "no change")”.
